Assays:
HLA-A*24 = assay: MHC binding assay by UV-ligand exchange and beta2m ELISA; parameters: species or system human; details: peptide exchange yield
Text: (§1) Candidate peptides for T cell based therapies according to the present invention were further tested for their MHC binding capacity (affinity). The individual peptide-MHC complexes were produced by UV-ligand exchange, where a UV-sensitive peptide is cleaved upon UV-irradiation, and exchanged with the peptide of interest as analyzed. Only peptide candidates that can effectively bind and stabilize the peptide-receptive MHC molecules prevent dissociation of the MHC complexes. To determine the yield of the exchange reaction, an ELISA was performed based on the detection of the light chain (β2m) of stabilized MHC complexes. The assay was performed as generally described in Rodenko et al. (Rodenko et al., 2006).
(§2) 96 well MAXISorp plates (NUNC) were coated over night with 2 ug/ml streptavidin in PBS at room temperature, washed 4× and blocked for 1 h at 37° C. in 2% BSA containing blocking buffer. Refolded HLA-A*02:01/MLA-001 monomers served as standards, covering the range of 15-500 ng/ml. Peptide-MHC monomers of the UV-exchange reaction were diluted 100 fold in blocking buffer. Samples were incubated for 1 h at 37° C., washed four times, incubated with 2 ug/ml HRP conjugated anti-β2m for 1 h at 37° C., washed again and detected with TMB solution that is stopped with […]. Absorption was measured at 450 nm. Candidate peptides that show a high exchange yield (preferably higher than 50%, most preferred higher than 75%) are generally preferred for a generation and production of antibodies or fragments thereof, and/or T cell receptors or fragments thereof, as they show sufficient avidity to the MHC molecules and prevent dissociation of the MHC complexes.

CD8+ T cells = assay: In vitro T-cell priming assay with aAPCs loaded with peptide/MHC and anti-CD28, multimer readout; assay type: cell-based, human; details: in vitro immunogenicity; for donors / wells: Table 15A; for donors: positive donors; for wells: positive wells; for Wells positive [%]: Table 15B
Text: In order to obtain information regarding the immunogenicity of the TUMAPs of the present invention, the inventors performed investigations using an in vitro T-cell priming assay based on repeated stimulations of CD8+ T cells with artificial antigen presenting cells (aAPCs) loaded with peptide/MHC complexes and anti-CD28 antibody.
In order to perform in vitro stimulations by artificial antigen presenting cells loaded with peptide-MHC complex (pMHC) and anti-CD28 antibody, the inventors first isolated CD8+ T cells from fresh HLA-A*02 leukapheresis products via positive selection using CD8 microbeads (Miltenyi Biotec, Bergisch-Gladbach, Germany) of healthy donors obtained from the University clinics Mannheim, Germany, after informed consent.
PBMCs and isolated CD8+ lymphocytes were incubated in T-cell medium (TCM) until use consisting of RPMI-Glutamax (Invitrogen, Karlsruhe, Germany) supplemented with 10% heat inactivated human AB serum (PAN-Biotech, Aidenbach, Germany), 100 U/ml Penicillin/100 μg/ml Streptomycin (Cambrex, Cologne, Germany), 1 mM sodium pyruvate (CC Pro, Oberdorla, Germany), 20 μg/ml Gentamycin (Cambrex). 2.5 ng/ml IL7 (PromoCell, Heidelberg, Germany) and 10 U/ml IL-2 (Novartis Pharma, Nurnberg, Germany) were also added to the TCM at this step.
Generation of pMHC/anti-CD28 coated beads, T-cell stimulations and readout was performed in a highly defined in vitro system using four different pMHC molecules per stimulation condition and 8 different pMHC molecules per readout condition.
The purified co-stimulatory mouse IgG2a anti human CD28 Ab 9.3 (Jung et al., 1987) was chemically biotinylated using Sulfo-N-hydroxysuccinimidobiotin as recommended by the manufacturer (Perbio, Bonn, Germany). Beads used were 5.6 μm diameter streptavidin coated polystyrene particles (Bangs Laboratories, Illinois, USA).
800.000 beads/200 μl were coated in 96-well plates in the presence of 4×12.5 ng different biotin-pMHC, washed and 600 ng biotin anti-CD28 were added subsequently in a volume of 200 μl. Stimulations were initiated in 96-well plates by co-incubating […] CD8+ T cells with 2×10^5 washed coated beads in 200 μl TCM supplemented with 5 ng/ml IL-12 (PromoCell) for 3 days at 37° C. Half of the medium was then exchanged by fresh TCM supplemented with 80 U/ml IL-2 and incubating was continued for 4 days at 37° C. This stimulation cycle was performed for a total of three times. For the pMHC multimer readout using 8 different pMHC molecules per condition, a two-dimensional combinatorial coding approach was used as previously described (Andersen et al., 2012) with minor modifications encompassing coupling to 5 different fluorochromes. Finally, multimeric analyses were performed by staining the cells with Live/dead near IR dye (Invitrogen, Karlsruhe, Germany), CD8-FITC antibody clone SK1 (BD, Heidelberg, Germany) and fluorescent pMHC multimers. For analysis, a BD LSRII SORP cytometer equipped with appropriate lasers and filters was used. Peptide specific cells were calculated as percentage of total CD8+ cells. Evaluation of multimeric analysis was done using the FlowJo software (Tree Star, Oregon, USA). In vitro priming of specific multimer+ CD8+ lymphocytes was detected by comparing to negative control stimulations.

HLA-A*02 = HLA-A*02 (Homo sapiens, UniProt P04439, D140Y/D185E/D98H/E176V/E277Q/G131W/G231S/I119V/I121R/I166T/I218V/L300P/N151K/N90K/P208A/P217A/Q86G/Q94H/R138H/R169H); assay: MHC binding assay by UV-ligand exchange and beta2m ELISA; details: peptide exchange yield
Text: as §1, §2

Peptide exchange (HLA-A*24)	Peptide exchange (HLA-A*02)	Substance	other results
++ (>20% = ++)	–	56 (LFHPEDTGQVF; listed as Homo sapiens) [compound 56]	–
–	–	17 (RLGIKPESV; listed as Homo sapiens) [compound 17]	donors (CD8+ T cells): ++++ (>=70% = ++++); wells (CD8+ T cells): ++ (20%-49% = ++)
–	+++ (>50 = +++)	15 (KMDEASAQLLA; listed as Homo sapiens) [compound 15]	–
+++ (>50 = +++)	–	25 (IYEPYLAMF; listed as Homo sapiens) [compound 25]	–
+++ (>50 = +++)	–	43 (AYIKNGQLF; listed as Homo sapiens) [compound 43]	–
+++ (>50 = +++)	–	34 (AFSPDSHYLLF; listed as Homo sapiens) [compound 34]	donors (CD8+ T cells): +++ (50%-69% = +++); wells (CD8+ T cells): + (<20% = +)
–	+++ (>50 = +++)	5 (KIFSRLIYI; listed as Homo sapiens) [compound 5]	Wells positive [%] (CD8+ T cells): +++ (50%-69%= +++)
–	+++ (>50 = +++)	16 (KMDEASAQL; listed as Homo sapiens) [compound 16]	–
+++ (>50 = +++)	–	41 (RYLQKIEEF; listed as Homo sapiens) [compound 41]	–
–	++++ (>75% = ++++)	2 (SMLGEEIQL; listed as Homo sapiens) [compound 2]	–
+++ (>50 = +++)	–	42 (TYIGQGYII; listed as Homo sapiens) [compound 42]	donors (CD8+ T cells): ++++ (>=70% = ++++); wells (CD8+ T cells): + (<20% = +)
–	++ (>20% = ++)	7 (TLLQVVGVVSV; listed as Homo sapiens) [compound 7]	–
–	++ (>20% = ++)	11 (YLEEECPAT; listed as Homo sapiens) [compound 11]	–
–	++++ (>75% = ++++)	6 (ALLESRVNL; listed as Homo sapiens) [compound 6]	Wells positive [%] (CD8+ T cells): + (<20% = +)
+++ (>50 = +++)	–	29 (RYGSPINTF; listed as Homo sapiens) [compound 29]	donors (CD8+ T cells): +++ (50%-69% = +++); wells (CD8+ T cells): + (<20% = +)
–	++++ (>75% = ++++)	22 (SLYDSIAFI; listed as Homo sapiens) [compound 22]	–
+++ (>50 = +++)	–	54 (AYSEKVTEF; listed as Homo sapiens) [compound 54]	–
+++ (>50 = +++)	–	48 (AWAPKPYHKF; listed as Homo sapiens) [compound 48]	–
++++ (>75% = ++++)	–	55 (LYFEKGEYF; listed as Homo sapiens) [compound 55]	–
+++ (>50 = +++)	–	33 (QYGKDFLTL; listed as Homo sapiens) [compound 33]	–
+++ (>50 = +++)	–	26 (RYADDTFTPAF; listed as Homo sapiens) [compound 26]	–
++ (>20% = ++)	–	45 (RYFKTPRKF; listed as Homo sapiens) [compound 45]	–
–	+++ (>50 = +++)	10 (TLWRGPVVV; listed as Homo sapiens) [compound 10]	–

Peptide exchange (HLA-A*24)	Peptide exchange (HLA-A*02)	Substance	other results
–	++++ (>75% = ++++)	1 (VTAQIGIVAV; listed as Homo sapiens) [compound 1]	Wells positive [%] (CD8+ T cells): ++++ (>=70% = ++++)
–	++ (>20% = ++)	21 (YLNDSLRHV; listed as Homo sapiens) [compound 21]	–
++++ (>75% = ++++)	–	27 (GYLQGLVSF; listed as Homo sapiens) [compound 27]	Wells positive [%] (CD8+ T cells): ++ (20%-49% = ++)
–	++++ (>75% = ++++)	4 (ALLTFVWKL; listed as Homo sapiens) [compound 4]	–
–	++++ (>75% = ++++)	3 (HLLEDIAHV; listed as Homo sapiens) [compound 3]	Wells positive [%] (CD8+ T cells): ++ (20%-49% = ++)
+++ (>50 = +++)	–	44 (VYNTVSEGTHF; listed as Homo sapiens) [compound 44]	–
++++ (>75% = ++++)	–	47 (SYTPVLNQF; listed as Homo sapiens) [compound 47]	–
++ (>20% = ++)	–	35 (IYTRVTYYL; listed as Homo sapiens) [compound 35]	donors (CD8+ T cells): ++++ (>=70% = ++++); wells (CD8+ T cells): ++ (20%-49% = ++)
+++ (>50 = +++)	–	30 (SYSPAHARL; listed as Homo sapiens) [compound 30]	–
–	++ (>20% = ++)	14 (KMDEASAQLL; listed as Homo sapiens) [compound 14]	–
–	+++ (>50 = +++)	20 (SLLSHQVLL; listed as Homo sapiens) [compound 20]	–
–	+++ (>50 = +++)	52 (ALGDLVQSV; listed as Homo sapiens) [compound 52]	–
++++ (>75% = ++++)	–	28 (YYAKEIHKF; listed as Homo sapiens) [compound 28]	–
–	+++ (>50 = +++)	13 (AMAPNHAVV; listed as Homo sapiens) [compound 13]	–
+++ (>50 = +++)	–	24 (SYNDALLTF; listed as Homo sapiens) [compound 24]	Wells positive [%] (CD8+ T cells): +++ (50%-69%= +++)
+++ (>50 = +++)	–	59 (IYPDVTYAF; listed as Homo sapiens) [compound 59]	–
++++ (>75% = ++++)	–	32 (PYQLNASLFTF; listed as Homo sapiens) [compound 32]	–
–	+++ (>50 = +++)	53 (YLLKDKGEYTL; listed as Homo sapiens) [compound 53]	–
++ (>20% = ++)	–	58 (GYIDKVRQL; listed as Homo sapiens) [compound 58]	–
+++ (>50 = +++)	–	36 (RYMWINQEL; listed as Homo sapiens) [compound 36]	–
–	+++ (>50 = +++)	9 (GMLNEAEGKAIKL; listed as Homo sapiens) [compound 9]	–
+++ (>50 = +++)	–	31 (AYTSPPSFF; listed as Homo sapiens) [compound 31]	–

Source: patent US11786584B2, “Peptides and combination of peptides for use in immunotherapy against prostate cancer and other cancers” (Immatics Biotechnologies GmbH, priority 2015, dated 2023)
